The values below come from US20240228488A1 (TAKEDA PHARMACEUTICAL COMPANY LIMITED, priority 2021, published 2024).

The target of test [1] is human activated kallikrein enzyme (Homo sapiens, UniProt P03952). The experiment in a line: Plasma kallikrein inhibition, fluorogenic PFR-AMC substrate, 500 pM activated kallikrein format. It is filed as biochemical. Particulars: 500 pM activated kallikrein, 300 uM PFR-AMC, 30 min preincubation, 10 min reaction; read-out: Primary Dose Response Assay: Average EC50. The gist of the method: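 Enzyme (500 pM) was preincubated with inhibitor for 30 min at room temperature in 20 mM Tris pH 7.5, 1 mM EDTA, 150 mM NaCl, 0.1% PEG-400 and 0.1% Triton X-100. The reaction was started with 300 uM PFR-AMC, run 10 min, and fluorescence read at 460 nm (380 nm excitation). EC50 derived.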

For another test, the target named is T1, plasma kallikrein (Homo sapiens, UniProt P03952).
T1 construct: from tissue
The test can be described thus: Neat human plasma assay, FXIIa contact pathway-activated, PFR-AMC substrate. To be noted: citrated human plasma 78% final, 10 nM human FXIIa, 100 μM PFR-AMC; read-out: Human Plasma Assay: IC90. Type of test: biochemical. The method, then: To analyze inhibition of plasma kallikrein in an ex vivo setting, the potency of compounds was measure in contact pathway-activated plasma assays. In a fluorogenic peptide substrate assay, test compounds dissolved in DMSO were added to sodium citrate collected human or rat plasma in a 96-well microplate. Alternatively, citrated plasma was collected from rats administered the compounds orally or by IV. 10 nM of human FXIIa (Enzyme Research Laboratories) diluted in pKal buffer (20 mM Tris-HCl, pH 7.5, 150 mM NaCl, 1 mM EDTA, 0.1% PEG-8000, and 0.1% Triton X-100) was added to the plasma, followed by the 100 μM of the profluorescent, synthetic plasma kallikrein substrate PFR-AMC (also diluted in pKal buffer). Final plasma concentration in the reaction was 78%. Fluorescence was immediately monitored by excitation/emission wavelengths of 360 nm/480 nm respectively over a period of 5 minutes in a microplate reader. The resulting linear increase in fluorescence emission (reflecting pKal proteolysis of PFR-AMC substrate) was fit to extract a proteolytic rate (fluorescent units over time), and this rate was subsequently plotted against compound inhibitor concentration. Resulting plots were fit to a standard 4-parameter IC50/IC90 equation to determine min/max values, IC50/90, and slope. All experimental steps were performed at room temperature. Table 50 provides results of the assay.

human activated kallikrein enzyme, sequence (P03952 391-638 limits assumed): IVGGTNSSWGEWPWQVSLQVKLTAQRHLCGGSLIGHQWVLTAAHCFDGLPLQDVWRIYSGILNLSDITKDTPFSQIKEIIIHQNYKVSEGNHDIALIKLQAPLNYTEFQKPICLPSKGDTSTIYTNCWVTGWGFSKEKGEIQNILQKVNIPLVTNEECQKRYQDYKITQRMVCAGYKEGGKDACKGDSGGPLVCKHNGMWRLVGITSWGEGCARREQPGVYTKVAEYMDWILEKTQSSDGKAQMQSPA
human activated kallikrein enzyme, sequence (P03952 20-390 partner limits assumed): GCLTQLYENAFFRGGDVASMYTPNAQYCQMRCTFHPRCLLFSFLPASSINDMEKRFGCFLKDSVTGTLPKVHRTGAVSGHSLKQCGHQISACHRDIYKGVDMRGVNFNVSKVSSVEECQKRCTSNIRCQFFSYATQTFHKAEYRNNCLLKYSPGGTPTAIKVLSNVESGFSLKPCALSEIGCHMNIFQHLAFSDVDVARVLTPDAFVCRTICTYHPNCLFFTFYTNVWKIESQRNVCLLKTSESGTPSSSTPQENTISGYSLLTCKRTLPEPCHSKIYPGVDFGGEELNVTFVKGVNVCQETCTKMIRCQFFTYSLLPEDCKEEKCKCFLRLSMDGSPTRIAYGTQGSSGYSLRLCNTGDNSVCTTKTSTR
T1 sequence (P03952 391-638 limits assumed): as the sequence (P03952 391-638 limits assumed) above
T1 sequence (P03952 20-390 partner limits assumed): as the sequence (P03952 20-390 partner limits assumed) above

As usually defined, the EC50 is the concentration giving half of the maximal effect. The term IC90 denotes the point of the concentration-response curve where the effect stands at 90%. Regarding `CN(C)C1CCN(c2cc(C3CC3)cn3cc(CNc4cc(NC(=O)[C@H]5C[C@@H]5c5cccc(Cl)c5)ncn4)nc23)C1` (mixture of isomers) [Example I-13, (1S,2S)-2-(3-chlorophenyl)-N-(6-(((6-cyclopropyl-8-(3-(dimethylamino)pyrrolidin-1-yl)imidazo[1,2-a]pyridin-2-yl)methyl)amino)pyrimidin-4-yl)cyclopropane-1-carboxamide], the EC50 in test [1] was 1 to 10 nM. For the same compound, the IC90 on plasma kallikrein was in the range of 1500 to 10000 nM.
Regarding `Cc1ccnc([C@@H]2C[C@H]2C(=O)Nc2cc(OCc3cn4cc(C5CC5)cc(N5CC(=O)N(C)C5=O)c4n3)ncn2)n1` (racemic) [Example 28, rac-(1S*,2S*)—N-(6-((6-cyclopropyl-8-(3-methyl-2,4-dioxoimidazolidin-1-yl)imidazo[1,2-a]pyridin-2-yl)methoxy)pyrimidin-4-yl)-2-(4-methylpyrimidin-2-yl)cyclopropane-1-carboxamide], in test [1], the EC50 was below 1 nM. Further, the IC90 on plasma kallikrein lay within 400 to 1500 nM.
With `Cc1ccnc([C@H]2C[C@@H]2C(=O)Nc2cc(OCc3cn4cc(C5CC5)cc(N5CC(=O)N(CCOCc6ccccc6)C5=O)c4n3)ncn2)n1` (racemic) [Example 31, rac-(1S*,2S*)—N-(6-((8-(3-(2-(benzyloxy)ethyl)-2,4-dioxoimidazolidin-1-yl)-6-cyclopropylimidazo[1,2-a]pyridin-2-yl)methoxy)pyrimidin-4-yl)-2-(4-methylpyrimidin-2-ylcyclopropane-1-carboxamide], the EC50 in test [1] fell in the range of 1 to 10 nM. For the same compound, the IC90 on plasma kallikrein lay within 10000 to 48000 nM.
With `Cc1ccnc([C@H]2C[C@@H]2C(=O)Nc2cc(OCc3cn4cc(C5CC5)cc(N5CC(=O)N(CCO)C5=O)c4n3)ncn2)n1` (racemic) [Example 33, rac-(1S*,2S*)—N-(6-((6-cyclopropyl-8-(3-(2-hydroxyethyl)-2,4-dioxoimidazolidin-1-yl)imidazo[1,2-a]pyridin-2-yl)methoxy)pyrimidin-4-yl)-2-(4-methylpyrimidin-2-yl)cyclopropane-1-carboxamide], in test [1], the EC50 is below 1 nM. For the same compound, the IC90 at plasma kallikrein was in the range of 400 to 1500 nM.
For the compound `O=C(Nc1cc(NCc2cn3cc(C4CC4)ccc3n2)ncn1)[C@H]1C[C@@H]1c1cc(Cl)ccc1Cl` (racemic) [Example 49, rac-(1S*,2S*)-N-(6-(((6-cyclopropylimidazo[1,2-a]pyridin-2-yl)methyl)amino)pyrimidin-4-yl)-2-(2,5-dichlorophenyl)cyclopropane-1-carboxamide], the EC50 in test [1] lay in the range of 100 to 1000 nM. The IC90 at plasma kallikrein is below 400 nM.
On to `N#Cc1ccc(Cl)c(F)c1[C@H]1C[C@@H]1C(=O)Nc1cc(NCc2cn3cc(C4CC4)ccc3n2)ncn1` (racemic) [Example 50, rac-(1S*,2S*)-2-(3-chloro-6-cyano-2-fluorophenyl)-N-(6-(((6-cyclopropylimidazo[1,2-a]pyridin-2-yl)methyl)amino)pyrimidin-4-yl)cyclopropane-1-carboxamide], for which the EC50 in test [1] lay in the range of 1 to 10 nM. In addition, the IC90 on plasma kallikrein lay in the range of 10000 to 48000 nM.
On to `CS(=O)(=O)c1cc(C2CC2)cn2cc(CNc3cc(NC(=O)[C@H]4C[C@@H]4c4cccc(Cl)c4)ncn3)nc12` (racemic) [Example 60, rac-(1S*,2S*)-2-(3-chlorophenyl)-N-(6-(((6-cyclopropyl-8-(methylsulfonyl)imidazo[1,2-α]pyridin-2-yl)methyl)amino)pyrimidin-4-yl)cyclopropane-1-carboxamide], for which the EC50 in test [1] fell in the range of 1 to 10 nM. Further, the IC90 at plasma kallikrein is 10000 to 48000 nM.
As to `O=C(Nc1cc(NCc2cn3cc(C4CC4)cc(C4(O)COC4)c3n2)ncn1)[C@H]1C[C@@H]1c1cccc(Cl)c1` (racemic) [Example 63, rac-(1S*,2S*)-2-(3-chlorophenyl)-N-(6-(((6-cyclopropyl-8-(3-hydroxyoxetan-3-yl)imidazo[1,2-α]pyridin-2-yl)methyl)amino)pyrimidin-4-yl)cyclopropane-1-carboxamide], in test [1], the EC50 fell in the range of 1 to 10 nM. On plasma kallikrein, the IC90 lay in the range of 1500 to 10000 nM.
The matching figures for `O=C(Nc1cc(NCc2cn3cc(C4CC4)cc(C4(F)COC4)c3n2)ncn1)[C@H]1C[C@@H]1c1cccc(Cl)c1` (racemic) [Example 64, rac-(1S*,2S*)-2-(3-chlorophenyl)-N-(6-(((6-cyclopropyl-8-(3-fluorooxetan-3-yl)imidazo[1,2-α]pyridin-2-yl)methyl)amino)pyrimidin-4-yl)cyclopropane-1-carboxamide]: 1 to 10 nM and above 48000 nM.
For the compound `O=C(Nc1cc(NCc2cn3cc(C4CC4)cc(CO)c3n2)ncn1)[C@H]1C[C@@H]1c1cccc(Cl)c1` (racemic) [Example 70, rac-(1S*,2S*)-2-(3-chlorophenyl)-N-(6-(((6-cyclopropyl-8-(hydroxymethyl)imidazo[1,2-α]pyridin-2-yl)methyl)amino)pyrimidin-4-yl)cyclopropane-1-carboxamide], the EC50 in test [1] fell in the range of 1 to 10 nM. The IC90 on plasma kallikrein is above 48000 nM.
As to `N#Cc1cc(C2CC2)cn2cc(CNc3cc(NC(=O)[C@H]4C[C@@H]4c4cccc(Cl)c4)ncn3)nc12` (racemic) [Example 71, rac-(1S*,2S*)-2-(3-chlorophenyl)-N-(6-(((8-cyano-6-cyclopropylimidazo[1,2-a]pyridin-2-yl)methyl)amino)pyrimidin-4-yl)cyclopropane-1-carboxamide], in test [1], the EC50 was 1 to 10 nM. In addition, the IC90 on plasma kallikrein lay within 10000 to 48000 nM.
As for `N#Cc1ccc(Cl)cc1[C@H]1C[C@@H]1C(=O)Nc1cc(NCc2cn3cc(C4CC4)cc(N4CCCC4=O)c3n2)ccn1` (racemic) [Example 79, rac-(1S*2S*)-2-(5-chloro-2-cyanophenyl)-N-(4-(((6-cyclopropyl-8-(2-oxopyrrolidin-1-yl)imidazo[1,2-a]pyridin-2-yl)methyl)amino)pyridin-2-yl)cyclopropane-1-carboxamide], in test [1], the 50% effective concentration (EC50) is below 1 nM. For the same compound, the IC90 on plasma kallikrein lay in the range of 400 to 1500 nM.
With `N#Cc1ccc(Cl)cc1[C@H]1C[C@@H]1C(=O)Nc1cc(NCc2cn3cc(C4CC4)ccc3n2)ccn1` (racemic) [Example 82, rac-(1S*,2S*)-2-(5-chloro-2-cyanophenyl)-N-(4-(((6-cyclopropylimidazo[1,2-a]pyridin-2-yl)methyl)amino)pyridin-2-yl)cyclopropane-1-carboxamide], in test [1], the EC50 is below 1 nM. Moreover, the IC90 on plasma kallikrein was 10000 to 48000 nM.
For `N#CCCc1cc(C2CC2)cn2cc(CNc3ccnc(NC(=O)[C@H]4C[C@@H]4c4cccc(Cl)c4)c3)nc12` (racemic) [Example 87, rac-(1S*,2S*)-2-(3-chlorophenyl)-N-(4-(((8-(2-cyanoethyl)-6-cyclopropylimidazo[1,2-a]pyridin-2-yl)methyl)amino)pyridin-2-yl)cyclopropane-1-carboxamide], the EC50 in test [1] lay within 1 to 10 nM. The IC90 on plasma kallikrein was in the range of 10000 to 48000 nM.
Take `Cc1ccnc([C@H]2C[C@@H]2C(=O)Nc2cc(C#N)cc(NCc3cn4cc(C5CC5)cc(N5CC(=O)N(C)C5=O)c4n3)c2)n1` [Example I-655, (1S,2S)—N-(3-cyano-5-(((6-cyclopropyl-8-(3-methyl-2,4-dioxoimidazolidin-1-yl)imidazo[1,2-a]pyridin-2-yl)methyl)amino)phenyl)-2-(4-methylpyrimidin-2-yl)cyclopropane-1-carboxamide]: the EC50 in test [1] is below 1 nM.
